Test results taken from the supplement of paper PMC10307832.

Key:
Assay in all cases: relative viability (nuclei count vs DMSO), 5 days (fraction); higher = more cells survive
[1] = compound: CC1=CC(=CC=C1)NC2=NC(=CS2)C3=CC=NC=C3 + C[C@@H](Oc1cc(-c2cnn(C3CCNCC3)c2)cnc1N)c1c(Cl)ccc(F)c1Cl [Crizotinib] (partner 1 µM)
Procedure, shortened: (§1)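 A single step with final 0.05% Triton X-100, 1% formaldehyde and 1 ug/ml Hoechst fixed the cells and stained nuclei 5 days after treatment. Lung cancer cell lines in 1536-well plates had been treated by pin tool the day after seeding with one drug alone or a fixed anchor-drug dose plus five library-drug doses (not always all listed) in √10 steps, and nuclei were counted on 4× images. Relative viability is the ratio of nuclei in treated wells to nuclei in vehicle wells, taken as the median of duplicate plates.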

[2] = compound: CC1=CC(=CC=C1)NC2=NC(=CS2)C3=CC=NC=C3 + CCNC(=O)c1noc(-c2cc(C(C)C)c(O)cc2O)c1-c1ccc(CN2CCOCC2)cc1 [Luminespib] (partner 0.01 µM)
Procedure, shortened: as §1

[3] = compound: CC1=CC(=CC=C1)NC2=NC(=CS2)C3=CC=NC=C3 + O=C(CCCCCCC(=O)Nc1ccccc1)NO [Vorinostat] (partner 1 µM)
Procedure, shortened: as §1

[4] = compound: CC1=CC(=CC=C1)NC2=NC(=CS2)C3=CC=NC=C3 + CC(C)C[C@H](NC(=O)[C@H](Cc1ccccc1)NC(=O)c1cnccn1)B(O)O [Bortezomib] (partner 0.002 µM)
Procedure, shortened: as §1

**Q.** With UMC-11 as the cell line, how does the relative viability ([1]; first compound 0.08 µM) read?
**A.** 0.602

**Q.** And the relative viability ([1]; first compound 0.253 µM)?
**A.** 0.582

**Q.** What about the relative viability ([1]; first compound 0.8 µM) of the same cell line?
**A.** 0.544

**Q.** What about the relative viability ([1]; first compound 2.53 µM) of the same cell line?
**A.** 0.579

**Q.** What about the relative viability ([1]; first compound 8 µM) of the same cell line?
**A.** 0.72

**Q.** And the relative viability ([2]; first compound 0.08 µM)?
**A.** 1.01

**Q.** What about the relative viability ([2]; first compound 0.253 µM) of the same cell line?
**A.** 1.05

**Q.** And the relative viability ([2]; first compound 0.8 µM)?
**A.** 1.06

**Q.** What about the relative viability ([2]; first compound 2.53 µM) of the same cell line?
**A.** 1.07

**Q.** And the relative viability ([2]; first compound 8 µM)?
**A.** 1.09

**Q.** What about the relative viability ([3]; first compound 0.08 µM) of the same cell line?
**A.** 0.356

**Q.** And the relative viability ([3]; first compound 0.253 µM)?
**A.** 0.32

**Q.** What about the relative viability ([3]; first compound 0.8 µM) of the same cell line?
**A.** 0.354

**Q.** And the relative viability ([3]; first compound 2.53 µM)?
**A.** 0.34

**Q.** And the relative viability ([3]; first compound 8 µM)?
**A.** 0.487

**Q.** What about the relative viability ([4]; first compound 0.08 µM) of the same cell line?
**A.** 0.761

**Q.** What about the relative viability ([4]; first compound 0.253 µM) of the same cell line?
**A.** 0.839

**Q.** What about the relative viability ([4]; first compound 0.8 µM) of the same cell line?
**A.** 0.635

**Q.** What about the relative viability ([4]; first compound 2.53 µM) of the same cell line?
**A.** 0.67

**Q.** What about the relative viability ([4]; first compound 8 µM) of the same cell line?
**A.** 0.686
